Laboratory results as given in PubChem BioAssay AID2060600 (Molecular Pharmacology Branch, DTP, NCI, 2025).

Tested on: 996289-038-R-J1-PDC complex spheroid viability
Assay: Anticancer human tumor 996289-038-R-J1-PDC patient-derived colon adenocarcinoma cell line growth inhibition [CLK]
Conditions: for IC50: curve of first compound; for viability, T/C: stronger effect = lower value
In short: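 Multi-cell-type spheroids combined patient-derived tumor cells with HUVEC endothelial cells and human mesenchymal stem cells. Paired agents were dosed in half-log steps down from about clinical Cmax, or from 10 microM where Cmax was unknown.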
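Note: spheroids exposed to the agents for 7 days before readout.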

**Q.** What does the source list for `CC(C)CC(NC(=O)C(Cc1ccccc1)NC(=O)c1cnccn1)B(O)O` (centres undefined) + CNC(=O)c1ccc(Nc2nc(OC3CCCC3)c3c(-c4ccc5nc(C)oc5c4)c[nH]c3n2)c(OC)c1?
**A.** IC50 (second compound 0.0316 µM): 4.57 nM; IC50 (second compound 0.1 µM): 4.21 nM; IC50 (second compound 0.316 µM): 1.84 nM; IC50 (second compound 1 µM): 1.32 nM; IC50 (second compound 3.16 µM): 1.14 nM; IC50 (second compound 10 µM): 1.1 nM; viability, T/C (second compound 0.0316 µM, first compound 0.000949 µM): 121%; viability, T/C (second compound 0.0316 µM, first compound 0.003 µM): 76.2%; viability, T/C (second compound 0.0316 µM, first compound 0.00949 µM): 4.49%; viability, T/C (second compound 0.0316 µM, first compound 0.03 µM): 0.95%; viability, T/C (second compound 0.0316 µM, first compound 0.0949 µM): 3.14%; viability, T/C (second compound 0.0316 µM, first compound 0.3 µM): 0.51%; viability, T/C (second compound 0.1 µM, first compound 0.000949 µM): 139%; viability, T/C (second compound 0.1 µM, first compound 0.003 µM): 70%; viability, T/C (second compound 0.1 µM, first compound 0.00949 µM): 1.94%; viability, T/C (second compound 0.1 µM, first compound 0.03 µM): 0.61%; viability, T/C (second compound 0.1 µM, first compound 0.0949 µM): 0.54%; viability, T/C (second compound 0.1 µM, first compound 0.3 µM): 0.26%; viability, T/C (second compound 0.316 µM, first compound 0.000949 µM): 76.2%; viability, T/C (second compound 0.316 µM, first compound 0.003 µM): 30.4%; viability, T/C (second compound 0.316 µM, first compound 0.00949 µM): 0.98%; viability, T/C (second compound 0.316 µM, first compound 0.03 µM): 1.34%; viability, T/C (second compound 0.316 µM, first compound 0.0949 µM): 0.59%; viability, T/C (second compound 0.316 µM, first compound 0.3 µM): 1.22%; viability, T/C (second compound 1 µM, first compound 0.000949 µM): 66.4%; viability, T/C (second compound 1 µM, first compound 0.003 µM): 9.51%; viability, T/C (second compound 1 µM, first compound 0.00949 µM): 0.47%; viability, T/C (second compound 1 µM, first compound 0.03 µM): 0.42%; viability, T/C (second compound 1 µM, first compound 0.0949 µM): 3.6%; viability, T/C (second compound 1 µM, first compound 0.3 µM): 1.03%; viability, T/C (second compound 3.16 µM, first compound 0.000949 µM): 58.1%; viability, T/C (second compound 3.16 µM, first compound 0.003 µM): 6.51%; viability, T/C (second compound 3.16 µM, first compound 0.00949 µM): 1.11%; viability, T/C (second compound 3.16 µM, first compound 0.03 µM): 0.54%; viability, T/C (second compound 3.16 µM, first compound 0.0949 µM): 0.85%; viability, T/C (second compound 3.16 µM, first compound 0.3 µM): 1.44%; viability, T/C (second compound 10 µM, first compound 0.000949 µM): 56.3%; viability, T/C (second compound 10 µM, first compound 0.003 µM): 6.54%; viability, T/C (second compound 10 µM, first compound 0.00949 µM): 1.51%; viability, T/C (second compound 10 µM, first compound 0.03 µM): 0.65%; viability, T/C (second compound 10 µM, first compound 0.0949 µM): 0.7%; viability, T/C (second compound 10 µM, first compound 0.3 µM): 2.05%

**Q.** For `CC1(C)CCC(CN2CCN(c3ccc(C(=O)NS(=O)(=O)c4ccc(NCC5CCOCC5)c([N+](=O)[O-])c4)c(Oc4cnc5[nH]ccc5c4)c3)CC2)=C(c2ccc(Cl)cc2)C1` + CNC(=O)c1ccc(Nc2nc(OC3CCCC3)c3c(-c4ccc5nc(C)oc5c4)c[nH]c3n2)c(OC)c1, which IC50 (second compound 0.0316 µM) is on record?
**A.** 9120 nM

**Q.** What about the IC50 (second compound 0.1 µM) of the same compound?
**A.** 8960 nM

**Q.** What about the IC50 (second compound 0.316 µM) of the same compound?
**A.** 7560 nM

**Q.** And the IC50 (second compound 1 µM)?
**A.** 6260 nM

**Q.** What about the IC50 (second compound 3.16 µM) of the same compound?
**A.** 5760 nM

**Q.** And the IC50 (second compound 10 µM)?
**A.** 5180 nM

**Q.** And the viability, T/C (second compound 0.0316 µM, first compound 0.0316 µM)?
**A.** 128%

**Q.** And the viability, T/C (second compound 0.0316 µM, first compound 0.1 µM)?
**A.** 110%

**Q.** And the viability, T/C (second compound 0.0316 µM, first compound 0.316 µM)?
**A.** 115%

**Q.** And the viability, T/C (second compound 0.0316 µM, first compound 1 µM)?
**A.** 127%

**Q.** What about the viability, T/C (second compound 0.0316 µM, first compound 3.16 µM) of the same compound?
**A.** 139%

**Q.** And the viability, T/C (second compound 0.0316 µM, first compound 10 µM)?
**A.** 43.5%

**Q.** And the viability, T/C (second compound 0.1 µM, first compound 0.0316 µM)?
**A.** 125%

**Q.** What about the viability, T/C (second compound 0.1 µM, first compound 0.1 µM) of the same compound?
**A.** 123%

**Q.** What about the viability, T/C (second compound 0.1 µM, first compound 0.316 µM) of the same compound?
**A.** 138%

**Q.** And the viability, T/C (second compound 0.1 µM, first compound 1 µM)?
**A.** 119%

**Q.** What about the viability, T/C (second compound 0.1 µM, first compound 3.16 µM) of the same compound?
**A.** 134%

**Q.** What about the viability, T/C (second compound 0.1 µM, first compound 10 µM) of the same compound?
**A.** 41.9%

**Q.** And the viability, T/C (second compound 0.316 µM, first compound 0.0316 µM)?
**A.** 80.2%

**Q.** What about the viability, T/C (second compound 0.316 µM, first compound 0.1 µM) of the same compound?
**A.** 82.7%

**Q.** What about the viability, T/C (second compound 0.316 µM, first compound 0.316 µM) of the same compound?
**A.** 88.7%

**Q.** What about the viability, T/C (second compound 0.316 µM, first compound 1 µM) of the same compound?
**A.** 90.7%

**Q.** And the viability, T/C (second compound 0.316 µM, first compound 3.16 µM)?
**A.** 103%

**Q.** And the viability, T/C (second compound 0.316 µM, first compound 10 µM)?
**A.** 37.5%

**Q.** And the viability, T/C (second compound 1 µM, first compound 0.0316 µM)?
**A.** 67.2%

**Q.** What about the viability, T/C (second compound 1 µM, first compound 0.1 µM) of the same compound?
**A.** 67.7%

**Q.** What about the viability, T/C (second compound 1 µM, first compound 0.316 µM) of the same compound?
**A.** 74%

**Q.** What about the viability, T/C (second compound 1 µM, first compound 1 µM) of the same compound?
**A.** 74.7%

**Q.** And the viability, T/C (second compound 1 µM, first compound 3.16 µM)?
**A.** 100%

**Q.** And the viability, T/C (second compound 1 µM, first compound 10 µM)?
**A.** 31.6%

**Q.** What about the viability, T/C (second compound 3.16 µM, first compound 0.0316 µM) of the same compound?
**A.** 65%

**Q.** What about the viability, T/C (second compound 3.16 µM, first compound 0.1 µM) of the same compound?
**A.** 61.7%

**Q.** What about the viability, T/C (second compound 3.16 µM, first compound 0.316 µM) of the same compound?
**A.** 67.1%

**Q.** And the viability, T/C (second compound 3.16 µM, first compound 1 µM)?
**A.** 70.7%

**Q.** What about the viability, T/C (second compound 3.16 µM, first compound 3.16 µM) of the same compound?
**A.** 84.1%

**Q.** And the viability, T/C (second compound 3.16 µM, first compound 10 µM)?
**A.** 32%

**Q.** And the viability, T/C (second compound 10 µM, first compound 0.0316 µM)?
**A.** 61.5%

**Q.** And the viability, T/C (second compound 10 µM, first compound 0.1 µM)?
**A.** 59.1%

**Q.** And the viability, T/C (second compound 10 µM, first compound 0.316 µM)?
**A.** 61.3%

**Q.** What about the viability, T/C (second compound 10 µM, first compound 1 µM) of the same compound?
**A.** 72.7%

**Q.** And the viability, T/C (second compound 10 µM, first compound 3.16 µM)?
**A.** 81.3%

**Q.** What about the viability, T/C (second compound 10 µM, first compound 10 µM) of the same compound?
**A.** 27%
